Marks after values point to notes of the source that are not given here.
How the values were obtained:
dipeptidyl peptidase-4 = molecular target: T1, dipeptidyl peptidase-4 (Homo sapiens, UniProt P27487); test: dipeptidyl peptidase-4 inhibitory activity test in vitro (DPP-4 inhibitor screening kit); assay type: biochemical
T1 construct: purchased
Text: The above compounds are detected by DPP-4 inhibitor screening kit.

[1] = test system: rats fed with high fat diet; test: blood lipid of rats fed with high fat diet; assay type: in vivo, SD rats; details: 50 mg/kg intragastric, 10 days, serum
Text: Serum total cholesterol kit (batch number 20131112), low density lipoprotein LDL-C kit (batch number 20140114), high density lipoprotein HDL-C kit (batch number 20140413), triglyceride TG kit (batch number 20131226), superoxide dismutase SOD kit (batch number 20140213) and glutamic-pyruvic transaminase ALT kit (batch number 20131006) are purchased from Nanjing Jiancheng Bioengineering Institute.
Methods: after being acclimatized for 1 week, the 200±20 g healthy male SD rats are randomly divided into 4 groups of 8 animals in each. The control group is fed with normal diet, while the other groups are fed with high-fat diet, which is normal diet with 1% cholesterol, 0.2% pig bile sal, 10% lard and 10% egg yolk powder. After being fed for 3 weeks, 10 mg/ml extract solution of 1 ml (which corresponds to 50 mg/kg) is given to different groups of rats by intragastric administration for 10 days successively, and the control group and model group are given with equal amounts of saline. After the last administration, blood is taken to be centrifuged at 3000 rpm in 4[…], and then detect serum total cholesterol, low density lipoprotein and triglyceride TG

[2] = test system: hyperglycemia KK-A^y mice; test: blood sugar of hyperglycemia KK-A^y mice; assay type: in vivo; set-up: blood sugar: unit not given here; details: for blood sugar at the 1st day, 0: 1st day 0 h; for blood sugar at the 1st day, 30 min: 1st day 30 min after intragastric administration
Procedure: Materials: accurately weigh the 2 compounds S13 and S28 discussed in example 2, and then add 0.5% CMC-Na to make the solution of 5 mg/ml used for activity test. KK-A^y mice are purchased from Chinese Academy of Medical Sciences & Peking Union Medical College Institute of Animal Studies. Experiments are carried out after adapting to the environment (T=20-24° C., constant humidity: 50-60%, 12 hours light exposure (8:00-20:00), soundproof, free feeding and drinking) for 1 week. Glucometer is purchased from Roche.
Methods: 10 male C57 mice of 6-8 weeks of 20-22 g are used as normal control group (1). Detect the fasting glucose of male KK-A^y mice, which are 6-8 weeks with the weight of 28-32 g, and divide them into different groups according to the blood sugar level and body weight: (2) model control group, (3) which is administered by compound S13 with the dose of 1 mg/kg, (4) which is administered by compound S13 with the dose of 5 mg/kg, (5) which is administered by compound S13 with the dose of 10 mg/kg, (6) which is administered by compound S13 with the dose of 20 mg/kg, (7) which is administered by compound S28 with the dose of 1 mg/kg, (8) which is administered by compound S28 with the dose of 5 mg/kg, (9) which is administered by compound S28 with the dose of 10 mg/kg, (10) which is administered by compound S28 with the dose of 20 mg/kg, (11) which is administered by metformin with the dose of 8 g/kg, (12) which is administered by compound S13 with the dose of 2.5 mg/kg and metformin with the dose of 4 g/kg, (13) which is administered by compound S13 with the dose of 5 mg/kg and metformin with the dose of 4 g/kg, (14) which is administered by compound S28 with the dose of 2.5 mg/kg and metformin with the dose of […], (15) which is administered by compound S28 with the dose of 5 mg/kg and metformin with the dose of […]. Each group has 8 mice, and is administrated successively for 3 weeks. Model control group is given with equal amounts of 0.5% CMC-Na.
1) Effects of drugs on blood sugar: at the first day after administration, the mice are fasted for 2 hours and blood is collected (0 h) to detect the fasting blood sugar. After the compound is given to the mice by intragastric administration for 30 min, blood is collected from tip of tail to detect the blood sugar level.
2) Effects on body weight and blood sugar: the body weight of mice are recorded at the 2th, 5th, 8th, 11th, 14th, 17th, 20th day after administration, and blood is collected from tip of tail to detect the blood sugar level (see table 10).

[3] = 2st day, 20 mg/kg, groups 6, 10
[4] = 5st day, 20 mg/kg, groups 6, 10
[5] = 8st day, 20 mg/kg, groups 6, 10
[6] = 11st day, 10 mg/kg, groups 5, 9
[7] = 11st day, 20 mg/kg, groups 6, 10
[8] = 14st day, 10 mg/kg, groups 5, 9
[9] = 14st day, 20 mg/kg, groups 6, 10
[10] = 17st day, 10 mg/kg, groups 5, 9
[11] = 17st day, 20 mg/kg, groups 6, 10
[12] = 20st day, 10 mg/kg, groups 5, 9
[13] = 20st day, 20 mg/kg, groups 6, 10

T1 sequence (P27487 whole entry, species assumed): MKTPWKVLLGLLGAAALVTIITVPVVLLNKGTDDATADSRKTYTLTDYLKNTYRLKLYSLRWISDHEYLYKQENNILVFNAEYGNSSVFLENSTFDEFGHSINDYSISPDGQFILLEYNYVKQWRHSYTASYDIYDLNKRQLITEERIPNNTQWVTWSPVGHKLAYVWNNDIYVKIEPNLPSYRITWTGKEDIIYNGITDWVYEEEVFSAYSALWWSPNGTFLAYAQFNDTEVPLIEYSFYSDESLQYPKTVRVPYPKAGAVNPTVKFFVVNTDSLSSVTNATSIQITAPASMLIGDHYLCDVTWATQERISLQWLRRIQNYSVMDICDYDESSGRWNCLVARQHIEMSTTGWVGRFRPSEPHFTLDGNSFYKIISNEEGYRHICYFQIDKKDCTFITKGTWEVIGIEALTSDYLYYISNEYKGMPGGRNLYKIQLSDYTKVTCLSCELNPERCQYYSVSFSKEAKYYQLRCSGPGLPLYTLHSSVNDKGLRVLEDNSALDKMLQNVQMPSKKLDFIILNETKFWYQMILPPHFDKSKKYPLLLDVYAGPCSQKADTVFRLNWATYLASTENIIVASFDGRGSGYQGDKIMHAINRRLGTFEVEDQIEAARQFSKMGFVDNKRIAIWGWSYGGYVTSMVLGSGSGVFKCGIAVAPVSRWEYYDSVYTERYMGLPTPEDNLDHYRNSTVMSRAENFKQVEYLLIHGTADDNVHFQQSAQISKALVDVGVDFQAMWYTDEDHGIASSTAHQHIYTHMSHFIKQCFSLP

`CC(C)=CCC/C(C)=C/CCC1=C[C@@H](c2cc(O)ccc2O)OC1=O` [S28, (S,E)-5-(2,5-dihydroxyphenyl)-3-(4,8-dimethylnona-3,7-dien-1-yl)furan-2(5H)-one] was tested, and the IC50 (dipeptidyl peptidase-4) was 6.8 µM, the ALT [1] was 72.1* U/L and the HDL-C [1] was 0.97 mmol/L. The LDL-C [1] was 0.38** mmol/L, the SOD [1] was 2.10* U/L and the TC [1] was 1.98** mmol/L. For the same molecule, the TG [1] was 0.45* mmol/L, the “effect on blood sugar of hyperglycemia mice (in words)” value [2] was “significant effects on blood sugar of hyperglycemia mice” and the “blood sugar at the 1st day, 0” value ([2]; 1 mg/kg, groups 3, 7) was 14.5. The “blood sugar at the 1st day, 0” value ([2]; 5 mg/kg, groups 4, 8) was 14.5, the “blood sugar at the 1st day, 0” value ([2]; 10 mg/kg, groups 5, 9) was 14.2 and the “blood sugar at the 1st day, 0” value ([2]; 20 mg/kg, groups 6, 10) was 14.1. The “blood sugar at the 1st day, 30 min” value ([2]; 1 mg/kg, groups 3, 7) was 11.3, the “blood sugar at the 1st day, 30 min” value ([2]; 5 mg/kg, groups 4, 8) was 9.42 and the “blood sugar at the 1st day, 30 min” value ([2]; 10 mg/kg, groups 5, 9) was 9.32. For the same molecule, the “blood sugar at the 1st day, 30 min” value ([2]; 20 mg/kg, groups 6, 10) was 6.24, the blood sugar ([2]; 2st day, 1 mg/kg, groups 3, 7) was 17.23 and the blood sugar ([2]; 2st day, 5 mg/kg, groups 4, 8) was 10.2. It also gave a blood sugar ([2]; 2st day, 10 mg/kg, groups 5, 9) of 13.12, a blood sugar [2, 3] of 13.25 and a blood sugar ([2]; 5st day, 1 mg/kg, groups 3, 7) of 14.1. It also gave a blood sugar ([2]; 5st day, 5 mg/kg, groups 4, 8) of 10.8, a blood sugar ([2]; 5st day, 10 mg/kg, groups 5, 9) of 13.5 and a blood sugar [2, 4] of 12.5. For the same molecule, the blood sugar ([2]; 8st day, 1 mg/kg, groups 3, 7) was 13.8, the blood sugar ([2]; 8st day, 5 mg/kg, groups 4, 8) was 7.12 and the blood sugar ([2]; 8st day, 10 mg/kg, groups 5, 9) was 14.1. It also gave a blood sugar [2, 5] of 12.8, a blood sugar ([2]; 11st day, 1 mg/kg, groups 3, 7) of 15.3 and a blood sugar ([2]; 11st day, 5 mg/kg, groups 4, 8) of 8.21. It also gave a blood sugar [2, 6] of 14.3, a blood sugar [2, 7] of 12.9 and a blood sugar ([2]; 14st day, 1 mg/kg, groups 3, 7) of 12.4. For the same molecule, the blood sugar ([2]; 14st day, 5 mg/kg, groups 4, 8) was 8.3, the blood sugar [2, 8] was 13.2 and the blood sugar [2, 9] was 12.5. It also gave a blood sugar ([2]; 17st day, 1 mg/kg, groups 3, 7) of 13.1, a blood sugar ([2]; 17st day, 5 mg/kg, groups 4, 8) of 8.2 and a blood sugar [2, 10] of 14.5. The blood sugar [2, 11] was 12.5, the blood sugar ([2]; 20st day, 1 mg/kg, groups 3, 7) was 12.43 and the blood sugar ([2]; 20st day, 5 mg/kg, groups 4, 8) was 10.23. It also gave a blood sugar [2, 12] of 14.12 and a blood sugar [2, 13] of 12.45.
For `CC(C)=CCC/C(C)=C/CCC1=C[C@H](c2cc(O)ccc2O)OC1=O` [S13, (R,E)-5-(2,5-dihydroxyphenyl)-3-(4,8-dimethylnona-3,7-dien-1-yl)furan-2(5H)-one], the IC50 (dipeptidyl peptidase-4) was 4.5 µM, the ALT [1] was 61.3* U/L and the HDL-C [1] was 0.99 mmol/L. The LDL-C [1] was 0.36** mmol/L, the SOD [1] was 2.04 U/L and the TC [1] was 2.13* mmol/L. For the same molecule, the TG [1] was 0.44* mmol/L, the “effect on blood sugar of hyperglycemia mice (in words)” value [2] was “significant effects on blood sugar of hyperglycemia mice” and the “blood sugar at the 1st day, 0” value ([2]; 1 mg/kg, groups 3, 7) was 14.7. For the same molecule, the “blood sugar at the 1st day, 0” value ([2]; 5 mg/kg, groups 4, 8) was 14.8, the “blood sugar at the 1st day, 0” value ([2]; 10 mg/kg, groups 5, 9) was 14.9 and the “blood sugar at the 1st day, 0” value ([2]; 20 mg/kg, groups 6, 10) was 14.7. The “blood sugar at the 1st day, 30 min” value ([2]; 1 mg/kg, groups 3, 7) was 11.1, the “blood sugar at the 1st day, 30 min” value ([2]; 5 mg/kg, groups 4, 8) was 9.2 and the “blood sugar at the 1st day, 30 min” value ([2]; 10 mg/kg, groups 5, 9) was 9.21. The “blood sugar at the 1st day, 30 min” value ([2]; 20 mg/kg, groups 6, 10) was 6.24, the blood sugar ([2]; 2st day, 1 mg/kg, groups 3, 7) was 17.3 and the blood sugar ([2]; 2st day, 5 mg/kg, groups 4, 8) was 10.1. The blood sugar ([2]; 2st day, 10 mg/kg, groups 5, 9) was 13.98, the blood sugar [2, 3] was 13.2 and the blood sugar ([2]; 5st day, 1 mg/kg, groups 3, 7) was 14.1. For the same molecule, the blood sugar ([2]; 5st day, 5 mg/kg, groups 4, 8) was 10.8, the blood sugar ([2]; 5st day, 10 mg/kg, groups 5, 9) was 13.5 and the blood sugar [2, 4] was 12.9. The blood sugar ([2]; 8st day, 1 mg/kg, groups 3, 7) was 13.8, the blood sugar ([2]; 8st day, 5 mg/kg, groups 4, 8) was 7.1 and the blood sugar ([2]; 8st day, 10 mg/kg, groups 5, 9) was 14.1. For the same molecule, the blood sugar [2, 5] was 12.8, the blood sugar ([2]; 11st day, 1 mg/kg, groups 3, 7) was 15.1 and the blood sugar ([2]; 11st day, 5 mg/kg, groups 4, 8) was 8.2. It also gave a blood sugar [2, 6] of 14.2, a blood sugar [2, 7] of 12.8 and a blood sugar ([2]; 14st day, 1 mg/kg, groups 3, 7) of 12.3. For the same molecule, the blood sugar ([2]; 14st day, 5 mg/kg, groups 4, 8) was 8.2, the blood sugar [2, 8] was 13.9 and the blood sugar [2, 9] was 12.5. It also gave a blood sugar ([2]; 17st day, 1 mg/kg, groups 3, 7) of 13.1, a blood sugar ([2]; 17st day, 5 mg/kg, groups 4, 8) of 8.2 and a blood sugar [2, 10] of 14.5. The blood sugar [2, 11] was 12.3, the blood sugar ([2]; 20st day, 1 mg/kg, groups 3, 7) was 12.8 and the blood sugar ([2]; 20st day, 5 mg/kg, groups 4, 8) was 10.1. For the same molecule, the blood sugar [2, 12] was 14.59 and the blood sugar [2, 13] was 12.5.
